Test system: tobacco budworm (Heliothis virescens [Fabricius])
Assay: Diet test: test chemical incorporated into artificial diet of tobacco budworm larvae, 5-day exposure
Type: in vivo
Details: for mortality at 100 µM / IC50 / LC50 / pest or weed control at 100 µM: Heliothis virescens, 120 h; for mortality at 100 µM / pest or weed control at 100 µM: feed or water; for mortality at 100 µM: read-out: Percent Mortality; for IC50: read-out: pl50 (converted); for LC50: negative log of the concentration that provides 50% mortality, read-out: pLC50 (converted); for pest or weed control at 100 µM / Percent Growth Inhibition: rate of application 4 (negative log of molar concentration in the diet), second instar larvae, 25°C; for pest or weed control at 100 µM: read-out: Percent Growth Inhibition
Experimental: Candidate insecticides were incorporated into an artificial diet for evaluation of insecticidal activity against the tobacco budworm (Heliothis virescens [Fabricius]) in the following manner. Stock solutions of test chemical in dimethyl sulfoxide, ranging from […], were prepared for each rate of application. One hundred microliters of each of the stock solutions was manually stirred into 50 mL of a molten (65-70°C) wheat germ-based artificial diet. The 50 mL of molten diet containing the test chemical was poured evenly into twenty wells in the outer two rows on each side of a twenty-five well, five row plastic tray. (Each well in the tray was about 1 cm in depth, with an opening of 3 cm by 4 cm at the lip.) Molten diet containing only dimethyl sulfoxide at the levels used in the test chemical-treated diet was poured into the five wells in the third (center) row of the tray. Each tray therefore contained one test chemical at a single rate of application, together with an untreated control. The rates of application, expressed as the negative log of the molar concentration, and the corresponding concentrations of the stock solution prepared for each rate are shown below:
Single second instar tobacco budworm larvae, selected at a stage of growth at which they uniformly weigh about 5 mg each, were placed in each well. Upon completion of infestation, a sheet of clear plastic was heat-sealed over the top of the tray by use of a common household flat.iron. The trays were held at 25°C at 60% relative humidity for five days in a growth chamber. Lighting was set at 14 hours of light and 10 hours of darkness. After the 5-day exposure period, mortality counts were taken, and the surviving insects were weighed. From the weights of the surviving insects that fed on the treated diet as compared to those insects that fed on the untreated diet, the percent growth inhibition caused by each test chemical was determined. […] Also, where possible, the negative log of the concentration of the test chemical that provided 50% mortality (pLC50) was determined.

[1] = negative log of the concentration that provides 50% growth inhibition, by linear regression, 5 days, * = average of more than one test
[2] = 5 days, * = average of more than one test

[O-][N+]1(Cc2ccc(Oc3ncccc3C(F)(F)F)cc2)CCC(C(O)(c2ccc(C(F)(F)F)cc2)c2ccc(C(F)(F)F)cc2)CC1 (centres unmarked) [Compound 61]
mortality at 100 µM: 100%

Cn1ncn(-c2ccc(CN3CCC(C(O)(c4ccc(C(F)(F)F)cc4)c4ccc(C(F)(F)F)cc4)CC3)cc2)c1=O [Compound 12, N-[4-(4,5-dihydro-1-methyl-5-oxo-1H-1,2,4-triazol-4-yl)phenylmethyl]-4-[bis(4-trifluoromethylphenyl)hydroxymethyl]piperidine]
IC50 [1]: 3.98 µM | LC50 [2]: > 100 µM | mortality at 100 µM: 35% | pest or weed control at 100 µM [2]: 98%

[O-][N+]1(Cc2ccc(-c3nnn(C(F)F)n3)cc2)CCC(C(O)(c2ccc(C(F)(F)F)cc2)c2ccc(C(F)(F)F)cc2)CC1 (centres unmarked) [Compound 39]
mortality at 100 µM: 100%

N#Cc1ccc(Oc2ccc(C[N+]3([O-])CCC(C(O)(c4ccc(C(F)(F)F)cc4)c4ccc(C(F)(F)F)cc4)CC3)cc2)nc1 (centres unmarked) [Compound 73]
mortality at 100 µM: 100%

[O-][n+]1ccccc1Oc1ccc(C[N+]2([O-])CCC(C(O)(c3ccc(C(F)(F)F)cc3)c3ccc(C(F)(F)F)cc3)CC2)cc1 (centres unmarked) [Compound 56]
mortality at 100 µM: 100%

Cn1cnc(-c2ccc(C[N+]3([O-])CCC(C(O)(c4ccc(C(F)(F)F)cc4)c4ccc(C(F)(F)F)cc4)CC3)cc2)n1 (centres unmarked) [Compound 28]
mortality at 100 µM: 100%

Cc1cccc(Oc2ccc(C[N+]3([O-])CCC(C(O)(c4ccc(C(F)(F)F)cc4)c4ccc(C(F)(F)F)cc4)CC3)cc2)n1 (centres unmarked) [Compound 76]
IC50 [1]: 0.631 µM | LC50 [2]: 6.31 µM | mortality at 100 µM: 100% | Percent Growth Inhibition [2]: 100%

CC(Oc1ccc(C[N+]2([O-])CCC(C(O)(c3ccc(C(F)(F)F)cc3)c3ccc(C(F)(F)F)cc3)CC2)cc1)c1ccccn1 (centres unmarked) [Compound 84]
mortality at 100 µM: 100%

[O-][N+]1(Cc2ccc(OCc3ccccn3)cc2)CCC(C(O)(c2ccc(C(F)(F)F)cc2)c2ccc(C(F)(F)F)cc2)CC1 (centres unmarked) [Compound 79]
mortality at 100 µM: 100%

OC(c1ccc(C(F)(F)F)cc1)(c1ccc(C(F)(F)F)cc1)C1CCN(Cc2ccc(Oc3ccc(C(F)(F)F)cn3)cc2)CC1 [Compound 70]
mortality at 100 µM: 100%

[O-][n+]1ccccc1-c1ccc(CN2CCC(C(O)(c3ccc(C(F)(F)F)cc3)c3ccc(C(F)(F)F)cc3)CC2)cc1 [Compound 45]
mortality at 100 µM: 100%

O=C1OCCN1c1ccc(C[N+]2([O-])CCC(C(O)(c3ccc(C(F)(F)F)cc3)c3ccc(C(F)(F)F)cc3)CC2)cc1 (centres unmarked) [Compound 21]
mortality at 100 µM: 10%

[O-][N+]1(Cc2ccc(Oc3nsnc3Cl)cc2)CCC(C(O)(c2ccc(C(F)(F)F)cc2)c2ccc(C(F)(F)F)cc2)CC1 (centres unmarked) [Compound 30]
mortality at 100 µM: 40%

CC(C)(C)n1nnc(-c2ccc(CN3CCC(C(O)(c4ccc(C(F)(F)F)cc4)c4ccc(C(F)(F)F)cc4)CC3)cc2)n1 [Compound 37]
mortality at 100 µM: 100%

Cc1cccc(Oc2ccc(CN3CCC(C(O)(c4ccc(C(F)(F)F)cc4)c4ccc(C(F)(F)F)cc4)CC3)cc2)n1 [Compound 75]
mortality at 100 µM: 100%

[O-][n+]1ccc(C(F)(F)F)cc1Oc1ccc(CN2CCC(C(O)(c3ccc(C(F)(F)F)cc3)c3ccc(C(F)(F)F)cc3)CC2)cc1 [Compound 65]
mortality at 100 µM: 25%

OC(c1ccc(C(F)(F)F)cc1)(c1ccc(C(F)(F)F)cc1)C1CCN(Cc2ccc(-c3ccccn3)cc2)CC1 [Compound 43]
IC50 [1]: ≤ 0.316 µM | LC50 [2]: 3.16 µM | mortality at 100 µM: 100% | Percent Growth Inhibition [2]: 100%

OC(c1ccc(C(F)(F)F)cc1)(c1ccc(C(F)(F)F)cc1)C1CCN(Cc2ccc(-c3ccc(Cl)cn3)cc2)CC1 [Compound 47]
IC50 [1]: 31.6 µM | LC50 [2]: 31.6 µM | mortality at 100 µM: 100% | Percent Growth Inhibition [2]: 100%

Cc1noc(-c2ccc(CN3CCC(C(O)(c4ccc(OC(F)(F)F)cc4)c4ccc(OC(F)(F)F)cc4)CC3)cc2)n1 [Compound 6]
mortality at 100 µM: 100%

CC(C)n1nnc(-c2ccc(C[N+]3([O-])CCC(C(O)(c4ccc(C(F)(F)F)cc4)c4ccc(C(F)(F)F)cc4)CC3)cc2)n1 (centres unmarked) [Compound 36]
mortality at 100 µM: 100%

[O-][N+]1(Cc2ccc(-c3ccccn3)cc2)CCC(C(O)(c2ccc(C(F)(F)F)cc2)c2ccc(C(F)(F)F)cc2)CC1 (centres unmarked) [Compound 44]
mortality at 100 µM: 100%

Cc1ccnc(Oc2ccc(C[N+]3([O-])CCC(C(O)(c4ccc(C(F)(F)F)cc4)c4ccc(C(F)(F)F)cc4)CC3)cc2)c1 (centres unmarked) [Compound 63]
mortality at 100 µM: 100%

Cc1cccnc1Oc1ccc(CN2CCC(C(O)(c3ccc(C(F)(F)F)cc3)c3ccc(C(F)(F)F)cc3)CC2)cc1 [Compound 57]
IC50 [1]: 0.794 µM | LC50 [2]: 7.94 µM | mortality at 100 µM: 100% | Percent Growth Inhibition [2]: 100%

[O-][N+]1(Cc2ccc(-c3nnn(CCF)n3)cc2)CCC(C(O)(c2ccc(C(F)(F)F)cc2)c2ccc(C(F)(F)F)cc2)CC1 (centres unmarked) [Compound 99]
mortality at 100 µM: 100%

Cc1ccnc(Oc2ccc(CN3CCC(C(O)(c4ccc(C(F)(F)F)cc4)c4ccc(C(F)(F)F)cc4)CC3)cc2)c1 [Compound 62]
IC50 [1]: 0.631 µM | LC50 [2]: 6.31 µM | mortality at 100 µM: 100% | Percent Growth Inhibition [2]: 100%

Cc1ccc[n+]([O-])c1Oc1ccc(CN2CCC(C(O)(c3ccc(C(F)(F)F)cc3)c3ccc(C(F)(F)F)cc3)CC2)cc1 [Compound 59]
mortality at 100 µM: 100%

CC1CN(C(=O)c2ccc(CN3CCC(C(O)(c4ccc(C(F)(F)F)cc4)c4ccc(C(F)(F)F)cc4)CC3)cc2)C(=O)O1 (centres unmarked) [Compound 24]
IC50 [1]: 31.6 µM | LC50 [2]: > 316 µM | mortality at 100 µM: 0% | Percent Growth Inhibition [2]: 86%

COCn1nnc(-c2ccc(CN3CCC(C(O)(c4ccc(C(F)(F)F)cc4)c4ccc(C(F)(F)F)cc4)CC3)cc2)n1 [Compound 41]
mortality at 100 µM: 100%

OC(c1ccc(C(F)(F)F)cc1)(c1ccc(C(F)(F)F)cc1)C1CCN(Cc2ccc(Oc3ncccc3C(F)(F)F)cc2)CC1 [Compound 60]
mortality at 100 µM: 100%

CCn1nnc(-c2ccc(CN3CCC(C(O)(c4ccc(C(F)(F)F)cn4)c4ccc(C(F)(F)F)cn4)CC3)cc2)n1 [Compound 104]
IC50 [1]: ≤ 0.316 µM | LC50 [2]: 0.398 µM | mortality at 100 µM: 100% | pl50 [1]: 6.8 | Percent Growth Inhibition [2]: 100%

OC(c1ccc(C(F)(F)F)cc1)(c1ccc(C(F)(F)F)cc1)C1CCN(Cc2ccc(Oc3ccc(Cl)cn3)cc2)CC1 [Compound 66]
mortality at 100 µM: 100%

[O-][N+]1(Cc2ccc(Oc3ccc(Cl)cn3)cc2)CCC(C(O)(c2ccc(C(F)(F)F)cc2)c2ccc(C(F)(F)F)cc2)CC1 (centres unmarked) [Compound 67]
mortality at 100 µM: 70%

Cn1ccc(-c2ccc(CN3CCC(C(O)(c4ccc(OC(F)(F)F)cc4)c4ccc(OC(F)(F)F)cc4)CC3)cc2)c1 [Compound 4]
mortality at 100 µM: 100%

OC(c1ccc(C(F)(F)F)cc1)(c1ccc(C(F)(F)F)cc1)C1CCN(Cc2ccc(-c3ncccn3)cc2)CC1 [Compound 100]
mortality at 100 µM: 100%

Cn1nnnc1-c1ccc(CN2CCC(C(O)(c3ccc(OC(F)(F)F)cc3)c3ccc(OC(F)(F)F)cc3)CC2)cc1 [Compound 8, N-[4-(1-methyltetrazol-5-yl)phenylmethyl]-4-[bis(4-trifluoromethoxyphenyl)hydroxymethyl]piperidine]
IC50 [1]: 31.6 µM | mortality at 100 µM: 0% | pest or weed control at 100 µM [2]: 79%
